# In PubChem BioAssay AID1259407 (Chemical Carcinogenesis Research Information System (CCRIS), 2018):
# Active and inactive are the calls of the source. No rule for the calls is given here.
# Tested on: CCRIS mutagenicity, Ames/micronucleus/aberration tests
# Assay: CCRIS mutagenicity studies
# [1] = Test System: AMES SALMONELLA TYPHIMURIUM, Strain/Indicator: TA98, Metabolic Activation: NONE, Method: STANDARD PLATE
compound,measurement,setting,value
CCCCCCCCCCCC(=O)O,mutagenic call,"Test System: AMES SALMONELLA TYPHIMURIUM, Strain/Indicator: TA97, Metabolic Activation: HAMSTER, LIVER, S-9, AROCLOR 1254 (10%), Method: PREINCUBATION",inactive; negative
same,mutagenic call,"Test System: AMES SALMONELLA TYPHIMURIUM, Strain/Indicator: TA97, Metabolic Activation: HAMSTER, LIVER, S-9, AROCLOR 1254 (30%), Method: PREINCUBATION",inactive; negative
same,mutagenic call,"Test System: AMES SALMONELLA TYPHIMURIUM, Strain/Indicator: TA97, Metabolic Activation: NONE, Method: PREINCUBATION",inactive; negative
same,mutagenic call,"Test System: AMES SALMONELLA TYPHIMURIUM, Strain/Indicator: TA97, Metabolic Activation: RAT, LIVER, S-9, AROCLOR 1254 (10%), Method: PREINCUBATION",inactive; negative
same,mutagenic call,"Test System: AMES SALMONELLA TYPHIMURIUM, Strain/Indicator: TA97, Metabolic Activation: RAT, LIVER, S-9, AROCLOR 1254 (30%), Method: PREINCUBATION",inactive; negative
same,mutagenic call,"Test System: AMES SALMONELLA TYPHIMURIUM, Strain/Indicator: TA98, Metabolic Activation: HAMSTER, LIVER, S-9, AROCLOR 1254 (10 OR 30%), Method: PREINCUBATION",inactive; negative
same,mutagenic call,"Test System: AMES SALMONELLA TYPHIMURIUM, Strain/Indicator: TA98, Metabolic Activation: NONE, Method: PREINCUBATION",inactive; negative
same,mutagenic call,"Test System: AMES SALMONELLA TYPHIMURIUM, Strain/Indicator: TA98, Metabolic Activation: RAT, LIVER, S-9, AROCLOR 1254 (10%), Method: PREINCUBATION",inactive; negative
same,mutagenic call,"Test System: AMES SALMONELLA TYPHIMURIUM, Strain/Indicator: TA98, Metabolic Activation: RAT, LIVER, S-9, AROCLOR 1254 (30%), Method: PREINCUBATION",inactive; negative
same,mutagenic call,"Test System: AMES SALMONELLA TYPHIMURIUM, Strain/Indicator: TA100, Metabolic Activation: HAMSTER, LIVER, S-9, AROCLOR 1254 (10 OR 30%), Method: PREINCUBATION",inactive; negative
same,mutagenic call,"Test System: AMES SALMONELLA TYPHIMURIUM, Strain/Indicator: TA100, Metabolic Activation: NONE, Method: PREINCUBATION",inactive; negative
same,mutagenic call,"Test System: AMES SALMONELLA TYPHIMURIUM, Strain/Indicator: TA100, Metabolic Activation: RAT, LIVER, S-9, AROCLOR 1254 (10%), Method: PREINCUBATION",inactive; negative
same,mutagenic call,"Test System: AMES SALMONELLA TYPHIMURIUM, Strain/Indicator: TA100, Metabolic Activation: RAT, LIVER, S-9, AROCLOR 1254 (30%), Method: PREINCUBATION",inactive; negative
same,mutagenic call,"Test System: AMES SALMONELLA TYPHIMURIUM, Strain/Indicator: TA1535, Metabolic Activation: HAMSTER, LIVER, S-9, AROCLOR 1254 (10%), Method: PREINCUBATION",inactive; negative
same,mutagenic call,"Test System: AMES SALMONELLA TYPHIMURIUM, Strain/Indicator: TA1535, Metabolic Activation: HAMSTER, LIVER, S-9, AROCLOR 1254 (30%), Method: PREINCUBATION",inactive; negative
same,mutagenic call,"Test System: AMES SALMONELLA TYPHIMURIUM, Strain/Indicator: TA1535, Metabolic Activation: NONE, Method: PREINCUBATION",inactive; negative
same,mutagenic call,"Test System: AMES SALMONELLA TYPHIMURIUM, Strain/Indicator: TA1535, Metabolic Activation: RAT, LIVER, S-9, AROCLOR 1254 (10%), Method: PREINCUBATION",inactive; negative
same,mutagenic call,"Test System: AMES SALMONELLA TYPHIMURIUM, Strain/Indicator: TA1535, Metabolic Activation: RAT, LIVER, S-9, AROCLOR 1254 (30%), Method: PREINCUBATION",inactive; negative
same,mutagenic call,"Test System: AMES SALMONELLA TYPHIMURIUM, Strain/Indicator: TA1537, Metabolic Activation: HAMSTER, LIVER, S-9, AROCLOR 1254 (10%), Method: PREINCUBATION",inactive; negative
same,mutagenic call,"Test System: AMES SALMONELLA TYPHIMURIUM, Strain/Indicator: TA1537, Metabolic Activation: HAMSTER, LIVER, S-9, AROCLOR 1254 (30%), Method: PREINCUBATION",inactive; negative
same,mutagenic call,"Test System: AMES SALMONELLA TYPHIMURIUM, Strain/Indicator: TA1537, Metabolic Activation: NONE, Method: PREINCUBATION",inactive; negative
same,mutagenic call,"Test System: AMES SALMONELLA TYPHIMURIUM, Strain/Indicator: TA1537, Metabolic Activation: RAT, LIVER, S-9, AROCLOR 1254 (30%), Method: PREINCUBATION",inactive; negative
CCN(CC)c1ccc(/C=C/C2=[N+](C)c3ccccc3C2(C)C)cc1,mutagenic call,"Test System: Ames Salmonella typhimurium, Strain/Indicator: TA98, Metabolic Activation: None, Method: Preincubation",inactive; negative
same,mutagenic call,"Test System: Ames Salmonella typhimurium, Strain/Indicator: TA98, Metabolic Activation: Rat, Liver, S-9, Aroclor 1254, Method: Preincubation",inactive; negative
same,mutagenic call,"Test System: Ames Salmonella typhimurium, Strain/Indicator: TA100, Metabolic Activation: None, Method: Preincubation",inactive; negative
same,mutagenic call,"Test System: Ames Salmonella typhimurium, Strain/Indicator: TA100, Metabolic Activation: Rat, Liver, S-9, Aroclor 1254, Method: Preincubation",inactive; negative
same,mutagenic call,"Test System: Ames Salmonella typhimurium, Strain/Indicator: TA102, Metabolic Activation: None, Method: Preincubation",inactive; negative
same,mutagenic call,"Test System: Ames Salmonella typhimurium, Strain/Indicator: TA102, Metabolic Activation: Rat, Liver, S-9, Aroclor 1254, Method: Preincubation",inactive; negative
same,mutagenic call,"Test System: Ames Salmonella typhimurium, Strain/Indicator: TA1535, Metabolic Activation: None, Method: Preincubation",inactive; negative
same,mutagenic call,"Test System: Ames Salmonella typhimurium, Strain/Indicator: TA1535, Metabolic Activation: Rat, Liver, S-9, Aroclor 1254, Method: Preincubation",inactive; negative
C1=CC2OC2C=CO1 (stereo not given),mutagenic call,[1],inactive; negative
same,mutagenic call,"Test System: AMES SALMONELLA TYPHIMURIUM, Strain/Indicator: TA98, Metabolic Activation: RAT, LIVER, S-9, PHENOBARBITAL, Method: STANDARD PLATE",inactive; negative
same,mutagenic call,"Test System: AMES SALMONELLA TYPHIMURIUM, Strain/Indicator: TA100, Metabolic Activation: NONE, Method: STANDARD PLATE",inactive; negative
same,mutagenic call,"Test System: AMES SALMONELLA TYPHIMURIUM, Strain/Indicator: TA100, Metabolic Activation: RAT, LIVER, S-9, PHENOBARBITAL, Method: STANDARD PLATE",inactive; negative
same,mutagenic call,"Test System: AMES SALMONELLA TYPHIMURIUM, Strain/Indicator: TM677/8-AZAGUANINE, Metabolic Activation: NONE, Method: STANDARD PLATE",inactive; negative
O=C1c2ccccc2C(=O)c2c1cc(O)c(O)c2O,mutagenic call,[1],active; positive
same,mutagenic call,"Test System: AMES SALMONELLA TYPHIMURIUM, Strain/Indicator: TA98, Metabolic Activation: RAT, LIVER, S-9, AROCLOR 1254, Method: STANDARD PLATE",active; positive
same,mutagenic call,"Test System: AMES SALMONELLA TYPHIMURIUM, Strain/Indicator: TA1535, Metabolic Activation: NONE, Method: STANDARD PLATE",inactive; negative
same,mutagenic call,"Test System: AMES SALMONELLA TYPHIMURIUM, Strain/Indicator: TA1535, Metabolic Activation: RAT, LIVER, S-9, AROCLOR 1254, Method: STANDARD PLATE",inactive; negative
same,mutagenic call,"Test System: AMES SALMONELLA TYPHIMURIUM, Strain/Indicator: TA1537, Metabolic Activation: NONE, Method: STANDARD PLATE",active; positive
same,mutagenic call,"Test System: AMES SALMONELLA TYPHIMURIUM, Strain/Indicator: TA1537, Metabolic Activation: RAT, LIVER, S-9, AROCLOR 1254, Method: STANDARD PLATE",active; positive
same,mutagenic call,"Test System: AMES SALMONELLA TYPHIMURIUM, Strain/Indicator: TA1538, Metabolic Activation: NONE, Method: STANDARD PLATE",active; positive
same,mutagenic call,"Test System: AMES SALMONELLA TYPHIMURIUM, Strain/Indicator: TA1538, Metabolic Activation: RAT, LIVER, S-9, AROCLOR 1254, Method: STANDARD PLATE",active; positive
same,mutagenic call,"Test System: AMES SALMONELLA TYPHIMURIUM, Strain/Indicator: TA1978, Metabolic Activation: NONE, Method: STANDARD PLATE",inactive; negative
same,mutagenic call,"Test System: AMES SALMONELLA TYPHIMURIUM, Strain/Indicator: TA1978, Metabolic Activation: RAT, LIVER, S-9, AROCLOR 1254, Method: STANDARD PLATE",inactive; negative
